Structures can show the parent of a compound that is named as a salt.
Tested on: mice with 2.5 mg/kg loperamide-induced constipation
Experiment: Small intestinal propulsive rate of a charcoal solution in mice with 2.5 mg/kg loperamide-induced constipation, with positive controls (Example 2)
Type: in vivo, mouse
Settings: for Effect on the small intestinal propulsive rate (%) vs model group, in words: positive drugs at 1× dose, loperamide-induced constipation mouse model; for Propulsive distance of the charcoal solution / Small intestinal propulsive rate: positive drugs intragastric: itopride 30.75, naloxone 5.0, domperidone 6.16, mosapride citrate 3.075 mg/kg, loperamide 2.5 mg/kg s.c., 20 min after charcoal
Source text: 1.2 Experimental Animals Species: mouse Strains: C57BL/6 Gender and quantity: Female, 65 Animal week-age: 8-9 weeks Weight range: 19.0-25.0 g Animal sources: Shanghai Lingchang Biotechnology Co. LTD Animal certificate number: 2013001804393 2. Experimental Design and Methods 2.1 Test Grouping:
Experimental animals were randomly divided into 8 groups (8 animals per group) by the random number table method.
2.2 Reagent Preparation 1) 0.5% CMC—Na solution: 2.0 g of CMC—Na powder was weighed and 300 ml ultra-pure water was slowly added thereto; the mixture was subjected to magnetic stirring until it was completely dissolved to reach a constant volume of 400 ml, thereby preparing a clear solution of 0.5%, which was stored at 4° C. for later use. 2) 1% Tween-80 in saline: 40 ml saline was accurately measured using a measuring cylinder and added into a 50 ml centrifuge tube; 400 μl Tween-80 was measured using a pipette and added into the centrifuge tube; and the mixture was subjected to vortex oscillation to be homogeneous and was then placed at room temperature for later use. 3) 5% charcoal solution: 100 g of Arabic gum was accurately weighed and 800 ml water was added thereto; and the solution was boiled until it was transparent. 50 g of activated carbon powder was weighed and added into the above solution and the mixture was boiled for three times. After the solution was cool, water was added to reach a constant volume of 1000 ml. 4) Group for the composition comprising B vitamins (9 components) and C vitamins (5×): one tablet of the composition comprising B vitamins (9 components) and C vitamins was taken; after its grinding, 19.5 ml of 0.5% CMC—Na was added; and the mixture was subjected to oscillation to become homogeneous, thereby forming a stable suspension. It was used immediately after its preparation. 5) Group for the composition comprising B vitamins (9 components) and C vitamins (1×): 2 ml of the suspension of the composition comprising B vitamins (9 components) and C vitamins (5×) was taken and 8 ml of 0.5% CMC—Na was added; and the mixture was subjected to oscillation to become homogeneous, thereby forming a stable suspension. It was used immediately after its preparation. 6) Domperidone: 32.52 ml of 0.5% CMC—Na was added after grinding of one domperidone tablet; and the mixture was subjected to oscillation to become homogeneous, thereby forming a stable suspension. It was used immediately after its preparation. 7) Mosapride citrate: 32.52 ml of 0.5% CMC—Na was added after grinding of one mosapride citrate tablet; and the mixture was subjected to oscillation to become homogeneous, thereby forming a stable suspension. It was used immediately after its preparation. […] It was used immediately after its preparation. […] It was used immediately after its preparation. 10) Loperamide: 5.0 mg of loperamide was accurately weighed and 20 ml of a saline solution with 1.0% Tween 80 was added thereto; after being subjected to oscillation to become homogeneous, the mixture was subjected to ultrasound for at least 5 minutes. This reagent was used immediately after it was prepared. 2.3 Test Methods
After 30 minutes of administration, the control group was injected subcutaneously with the saline solution containing 1.0% Tween 80 while the other groups were injected subcutaneously with a loperamide solution in an injection volume of 10 ml/kg. After a subcutaneous injection for 30 minutes, an intragastric administration of the charcoal solution was performed at an administration volume of 10 ml/kg^[1,2,3].
2.4 Observation Index Small intestinal propulsive rate of the charcoal solution (%)=(the propulsive distance of the charcoal solution/total length of the small intestine)×100
Twenty minutes after an intragastric administration of the charcoal solution, the animal was sacrificed by cervical dislocation and its abdominal cavity was immediately opened to separate the mesentery.

SMILES	Effect on the small intestinal propulsive rate (%) vs model group, in words	Propulsive distance of the charcoal solution [cm]	Small intestinal propulsive rate [%]	Small intestinal propulsive rate (listed as domperidone) [%]	Small intestinal propulsive rate (hydrochloride) [%]	Small intestinal propulsive rate (listed as itopride hydrochloride, hydrochloride) [%]	Small intestinal propulsive rate (listed as mosapride citrate) [%]
O=c1[nH]c2ccccc2n1CCCN1CCC(n2c(=O)[nH]c3cc(Cl)ccc32)CC1 [Domperidone]	do not have the improvement effect	4.0 ± 1.1	20.1 ± 5.7	19.5±3.8	–	–	–
COc1ccc(C(=O)NCc2ccc(OCCN(C)C)cc2)cc1OC [Itopride hydrochloride]	do not have the improvement effect	5.0 ± 1.2	–	–	26.4 ± 7.0	26.4±7.0	–
C=CCN1CC[C@]23c4c5ccc(O)c4O[C@H]2C(=O)CC[C@@]3(O)[C@H]1C5 [Naloxone]	also has the improvement effect	3.9 ± 0.8	19.5 ± 3.8	–	–	–	–
CCOc1cc(N)c(Cl)cc1C(=O)NCC1CN(Cc2ccc(F)cc2)CCO1 (stereo not drawn) [Mosapride Citrate, Mosapride citrate]	do not have the improvement effect	11.7 ± 2.1	60.7 ± 12.1	–	–	–	20.1±5.7

Source: patent US10881639B2, “Use of composition of multivitamin in preparing drug for stimulating gastrointestinal system motility” (Zensun (Shanghai) Science & Technology, Co., Ltd., priority 2015, dated 2021)
